# According to patent publication US10532054B2, “Compounds for the prevention and treatment of cardiovascular diseases” (Resverlogix Corp., priority 2007, dated 2020):
# Experiments:
# [1] = system: ApoA-I mRNA; assay: Quantification of ApoA-I mRNA in HepG2 cells; assay type: cell-based; parameters: key: Active: An active compound is one that causes a >15% increase in ApoA-I mRNA at a concentration less than or equal to 100 uM; details: concentration less than or equal to 100 uM
# Experimental: In this example, ApoA-I mRNA in tissue culture cells was quantitated to measure the transcriptional up-regulation of ApoA-I when treated with a compound of the invention.
# HepG2 cells (˜2×10^5 per well) were placed in a 24-well plate in ˜400 μL MEM, supplemented with 0.5% (v/v) FBS, 24 h before addition of the compound of interest. At time of harvesting, the spent media was removed from the HepG2 cells and immediately placed on ice (for immediate use) or at −80° C. (for future use) in ApoA-I and albumin ELISAs. The cells remaining in the plate wells were rinsed in 200 μL PBS. PBS was carefully removed to avoid removing any loosely attached cells.
# Once the PBS was removed, 85 μL cell lysis solution was added the cells in each well and incubated for 5-10 min at room temperature, to allow for complete cell lysis and detachment. mRNA was then prepared using the “mRNA Catcher PLUS plate” from Invitrogen, according to the protocol supplied. […]
# The eluted mRNA isolated was then used in a one-step real-time […] reaction, using components of the Ultra Sense Kit together with Applied Biosystems primer-probe mixes. Real-time PCR data was analyzed, using the Ct values, to determine the fold induction of each unknown sample, relative to the control (that is, relative to the control for each independent DMSO concentration). […]
# [2] = subjects with low HDL-C; cited from earlier work
# [3] = following oral administration; cited from earlier work
Compound,melting point,other results
"4-(1-Oxo-1,2-dihydroisoquinolin-3)phenyl 2-amino-5-guanidinopentanoate trihydrochloride [Example 4]",–,Effect on ApoA-I mRNA levels [1]: Active
"COc1cc(OC)c2c(=O)[nH]c(-c3cc(C)c(OCCN4CCOCC4)c(C)c3)cc2n1 [Example 50, 7-(3,5-dimethyl-4-(2-morpholinoethoxy)phenyl)-2,4-dimethoxy-1,6-naphthyridin-5(6H)-one]",212.5 to 212.9 °C,–
"COc1cc2cc(-c3cc(C)c(O)c(C)c3)[nH]c(=O)c2c(OC)c1CN1CCOCC1 [Example 51, 3-(4-hydroxy-3,5-dimethylphenyl)-6,8-dimethoxy-7-(morpholinomethyl)isoquinolin-1(2H)-one]",158 to 161 °C,–
"COc1cc(OC)c2c(=O)[nH]c(-c3ccc(CCC(=O)O)cc3)nc2c1 [Example 53, 3-(4-(5,7-dimethoxy-4-oxo-3,4-dihydroquinazolin-2-yl)phenyl)propanoic acid]",250.6 to 251.1 °C,–
"CC(=O)Nc1ccc2nc(-c3cc(C)c(O)c(C)c3)[nH]c(=O)c2c1 [Example 54, N-(2-(4-hydroxy-3,5-dimethylphenyl)-4-oxo-3,4-dihydroquinazolin-6-yl)acetamide]",336.5 °C (dec.),–
"COc1cc(OC)c2c(=O)[nH]c(-c3ccc(OCCO)c(Cl)c3)nc2c1 [Example 56, 2-(3-chloro-4-(2-hydroxyethoxy)phenyl)-5,7-dimethoxyquinazolin-4(3H)-one]",287 to 288 °C (dec.),–
"COc1cc(OC)c2c(=O)[nH]c(-c3cc(C)c(NC(=O)CO)c(C)c3)nc2c1 [Example 60, N-(4-(5,7-dimethoxy-4-oxo-3,4-dihydroquinazolin-2-yl)-2,6-dimethylphenyl)-2-hydroxyacetamide]",190 to 192 °C,–
"COc1cc(OC)c2c(=O)[nH]c(-c3cc(C)c(OC)c(C)c3)cc2n1 [Example 63, 2,4-dimethoxy-7-(4-methoxy-3,5-dimethylphenyl)-1,6-naphthyridin-5(6H)-one]",262 to 263 °C (dec.),–
"COc1cc(OC)c2c(=O)[nH]c(-c3ccc(NC(=O)CO)cc3)nc2c1 [Example 65, N-(4-(5,7-dimethoxy-4-oxo-3,4-dihydroquinazolin-2-yl)phenyl)-2-hydroxyacetamide]",318 to 319 °C,–
"COc1cc(OC)c2c(=O)[nH]c(-c3cc(C)c(O)c(C)c3)nc2n1 [Example 68, 2-(4-hydroxy-3,5-dimethylphenyl)-5,7-dimethoxypyrido[2,3-d]pyrimidin-4(3H)-one]",297 to 299 °C,–
"COc1cc(OC)c2c(=O)[nH]c(-c3ccc(OC)c(CN4CCOCC4)c3)nc2c1 [Example 69, 5,7-dimethoxy-2-(4-methoxy-3-(morpholinomethyl)phenyl)quinazolin-4(3H)-one]",282.7 to 284.5 °C,–
"COc1cc(OC)c2c(=O)nc(-c3cc(C)c(O)c(C)c3)n(C)c2c1 [Example 71, 2-(4-hydroxy-3,5-dimethylphenyl)-5,7-dimethoxy-1-methylquinazolin-4(1H)-one]",188.5 to 189.1 °C,–
"Cc1cc(-c2cc3nc(OC(C)C)cc(OC(C)C)c3c(=O)[nH]2)cc(C)c1O [Example 74, 7-(4-hydroxy-3,5-dimethylphenyl)-2,4-diisopropoxy-1,6-naphthyridin-5(6H)-one]",206 to 208 °C,–
"COc1cc(OC)c2c(=O)[nH]c(-c3ccc(O)c(CCO)c3)nc2c1 [Example 75, 2-(4-hydroxy-3-(2-hydroxyethyl)phenyl)-5,7-dimethoxyquinazolin-4(3H)-one]",249 to 250.3 °C,–
"COc1cc(OC)c2c(=O)[nH]c(-c3ccc(N(CCO)CCO)cc3)nc2n1 [Example 78, 2-(4-(bis(2-hydroxyethyl)amino)phenyl)-5,7-dimethoxy-pyrido[2,3-d]pyrimidin-4(3H)one]",277 to 279 °C,–
"COc1cc2nc(-c3cc(C)c(O)c(C)c3)[nH]c(=O)c2c(OC)c1CN1CCOCC1 [Example 81, 2-(4-hydroxy-3,5-dimethylphenyl)-5,7-dimethoxy-6-(morpholinomethyl)quinazolin-4(3H)-one]",237 to 239.1 °C,–
"COc1cc(OC)c2c(=O)[nH]c(-c3ccc(OCC(=O)O)c(OC)c3)nc2c1 [Example 103, 2-(4-(5,7-dimethoxy-4-oxo-3,4-dihydroquinazolin-2-yl)2-methoxyphenoxy)acetic acid]",275 to 277 °C,–
"COc1cc(O)c2c(=O)[nH]c(-c3cc(C)c(O)c(C)c3)nc2c1 [Example 104, 5-hydroxy-2-(4-hydroxy-3,5-dimethylphenyl)-7-methoxyquinazolin-4(3H)-one]",291.3 to 293 °C,–
Cc1ccc(C)c(OCCCC(C)(C)C(=O)O)c1 [gemfibrozil],–,increase in the HDL-C level [2]: 6%; reduction of the CHD risk [2]: 22%
O=c1c(O)c(-c2ccc(O)c(O)c2)oc2cc(O)cc(O)c12 [quercetin],–,intestinal absorption [3]: less than 1%

# Second part, led by results:
melting point,Compound,other results
> 300 °C,"COc1cc2nc(-c3cc(C)c(O)c(C)c3)[nH]c(=O)c2cc1OC [Example 52, 2-(4-hydroxy-3,5-dimethylphenyl)-6,7-dimethoxyquinazolin-4(3H)-one]",–
354 to 356 °C,"COc1cc2nc(-c3cc(C)c(OCC(N)=O)c(C)c3)[nH]c(=O)c2cc1OC [Example 55, 2-(4-(6,7-dimethoxy-4-oxo-3,4-dihydroquinazolin-2-yl)-2,6-dimethylphenoxy)acetamide]",–
246 to 248 °C,"COc1cc(OC)c2c(=O)[nH]c(-c3ccc(OCCO)c(OC)c3)nc2c1 [Example 57, 2-(4-(2-hydroxyethoxy)-3-methoxyphenyl)-5,7-dimethoxyquinazolin-4(3H)-one]",–
> 300 °C,"COc1cc2nc(-c3cc(C)c(OCCO)c(C)c3)[nH]c(=O)c2cc1OC [Example 58, 2-(4-(2-hydroxyethoxy)-3,5-dimethylphenyl)-6,7-dimethoxyquinazolin-4(3H)-one]",–
224.9 to 225.4 °C,"COc1cc(OC)c2c(=O)[nH]c(-c3cc(C)c(OCCO)c(C)c3)cc2n1 [Example 61, 7-(4-(2-hydroxyethoxy)-3,5-dimethylphenyl)-2,4-dimethoxy-1,6-naphthyridin-5(6H)-one]",–
270 to 272 °C,"COc1cc(OC)c2c(=O)[nH]c(-c3cc(C)c(OCC(=O)O)c(C)c3)nc2c1 [Example 64, 2-(4-(5,7-dimethoxy-4-oxo-3,4-dihydroquinazolin-2-yl)-2,6-dimethylphenoxy)acetic acid]",–
255 to 256 °C,"COc1cc(OC)c2c(=O)[nH]c(-c3cc(C)c(OCCO)c(C)c3)nc2n1 [Example 70, 2-(4-(2-hydroxyethoxy)-3,5-dimethylphenyl)-5,7-dimethoxypyrido[2,3-d]pyrimidin-4(3H)-one]",–
> 300 °C,"CC(=O)Nc1ccc2nc(-c3cc(C)c(OCCO)c(C)c3)[nH]c(=O)c2c1 [Example 73, N-(2-(4-(2-hydroxyethoxy)-3,5-dimethylphenyl)-4-oxo-3,4-dihydroquinazolin-6-yl)acetamide]",–
169 to 170 °C,"COc1cc(OC)c2cnc(-c3cc(C)c(OCCO)c(C)c3)nc2c1 [Example 76, 2-(4-(5,7-dimethoxyquinazolin-2-yl)-2,6-dimethylphenoxy)ethanol]",–
259.6 to 261.2 °C,"Cc1cc(C)c2c(=O)[nH]c(-c3cc(C)c(OCCO)c(C)c3)nc2c1 [Example 77, 2-(4-(2-hydroxyethoxy)-3,5-dimethylphenyl)-5,7-dimethylquinazolin-4(3H)-one]",–
201 to 202 °C,"COCCOc1c(C)cc(-c2nc3cc(OC)cc(OC)c3c(=O)[nH]2)cc1C [Example 79, 5,7-dimethoxy-2-(4-(2-methoxyethoxy)-3,5-dimethylphenyl)quinazolin-4(3H)-one]",–
260.8 to 262.6 °C,"Cc1cc(-c2nc3cc(Cl)cc(Cl)c3c(=O)[nH]2)cc(C)c1OCCO [Example 80, 5,7-dichloro-2-(4-(2-hydroxyethoxy)-3,5-dimethylphenyl)quinazolin-4(3H)-one]",–
